Publication PMC12049818, “Identification of NUV-244 as a PNPLA3 I148M degrading small molecule” (iScience, 2025)

Assays:
PNPLA3 I148M-tagRFP = target: T1, PNPLA3 I148M-tagRFP (Homo sapiens, UniProt Q9NST1, I148M); assay: Time-lapse imaging of PNPLA3 I148M-tagRFP on lipid droplets in Huh7 cells; type: cell-based; conditions: 1μM or 5μM; Huh7
T1 construct: host or cells: Huh7
T1 sequence (Q9NST1 1-481 I148M): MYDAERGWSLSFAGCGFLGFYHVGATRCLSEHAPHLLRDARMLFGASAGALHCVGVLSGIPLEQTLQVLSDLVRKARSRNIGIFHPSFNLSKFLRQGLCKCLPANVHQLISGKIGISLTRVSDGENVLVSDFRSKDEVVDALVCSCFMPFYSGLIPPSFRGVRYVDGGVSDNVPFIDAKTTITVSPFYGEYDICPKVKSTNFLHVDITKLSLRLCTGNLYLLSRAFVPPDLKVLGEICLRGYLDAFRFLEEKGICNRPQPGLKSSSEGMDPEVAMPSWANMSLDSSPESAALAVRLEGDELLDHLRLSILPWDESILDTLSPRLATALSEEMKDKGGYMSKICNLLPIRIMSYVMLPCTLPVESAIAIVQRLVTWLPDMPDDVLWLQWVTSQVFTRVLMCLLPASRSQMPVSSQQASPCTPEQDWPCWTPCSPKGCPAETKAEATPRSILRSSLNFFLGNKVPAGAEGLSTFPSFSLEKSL
Description: To evaluate the kinetics of NUV-244 mediated reduction and degradation of PNPLA3 I148M-tagRFP, we performed time-lapse studies to follow PNPLA3 I148M-tagRFP over time (Figures 5A and 5B). 1μM or 5μM NUV-244 leads to rapid onset of reduction of PNPLA3 I148M-tagRFP on lipid droplets with half maximum effect reached after approximately 2h. To evaluate if PNPLA3 I148M-tagRFP degradation is 26S proteasome dependent, 1μM Bortezomib was co-incubated with NUV-244. Proteasome inhibition prevents PNPLA3 I148M-tagRFP reduction from lipid droplets (Figures 5A and 5B). […] A recent paper identified the E3 ligase responsible for the turnover of endogenous PNPLA3, the ER associated E3 ligase BFAR.[18]
Huh7 cells expressing PNPLA3 I148M-tagRFP were seeded at 4000 cells/well in 30 μL media in 384-well imaging plates (Revvity, PhenoPlate) and stored in a 37°C incubator with 5% CO2 and 95% humidity overnight. Cells were then incubated with Bodipy diluted in growth medium (38nM final concentration) for 1h at 37°C with 5% CO2 and 95% humidity. Cells were treated with DMSO control, 1 μM or 5 μM NUV-244, with or without 1 μM Bortezomib or 5 μM MLN7243. Cells were imaged every 15 minutes over a 20-hour period using an Opera Phenix confocal spinning disc microscope system (Revvity) with a 20x water objective at 561 nm (tagRFP) and 488 nm (BODIPY). Images were analyzed using Harmony software. PNPLA3 I148M-tagRFP intensity on lipid droplets was quantified and compared between treatments.

Hep3B cells = assay: Incucyte growth curves, Hep3B; type: cell-based, human; conditions: 1μM or 5μM; compared to DMSO
Description: Huh7, Huh7 PNPLA3 I148M, Huh7 PNPLA3, Hep3b and LX-2 cells were seeded at a concentration of 1000 cells/well in 60 μl of growth medium on 384-well microtiter plates (Revvity, Waltham, MA, USA, PhenoPlate 384-well microplate, #6057308) and stored in a 37°C incubator with 5% CO2 and 95% humidity overnight. Next day cells were treated with DMSO as control (1% final concentration) or compound (1μM or 5μM final concentration) and cell density was recorded in the Incucyte® life cell imager (Sartorius, Göttingen, Germany) every 4 hours over a period of 5 days. Growth curves were generated by monitoring confluence over time. Proliferative capacity of PNPLA3 I148M-expressing cells was compared to control cells, and the restoration of proliferative fitness was analyzed.

PNPLA3 I148M = target: T2, PNPLA3 I148M (Homo sapiens, UniProt Q9NST1, I148M); assay: Western blot anti-PNPLA3, Huh7 PNPLA3 I148M; type: cell-based; set-up: host or cells: Huh7; conditions: 5µM; 24h; two independent Western Blots, Mean +/- Stdev
T2 sequence (Q9NST1 1-481 I148M): T1 sequence (Q9NST1 1-481 I148M)
Description: For SDS-PAGE and subsequent western blotting cells were harvested in 1x lysis buffer (50 mM Tris-Cl, pH 7.5, 150 mM NaCl, 1 mM EDTA, 1% Triton X-100) supplemented with complete mini protease inhibitor cocktail (Roche). Total protein concentration of samples was determined with a Bicinchoninic Acid (BCA) protein assay. Cell lysates were boiled for 10 min at 99°C with 1x NuPAGE LDS Sample Buffer and loaded onto a 4-12% Tris-Glycine SDS-PAGE gel. For immunoblotting proteins were transferred to a nitrocellulose membrane (0.2 μm pore size, Schleicher & Schuell) and blocked with Intercept (PBS) Blocking buffer (Licor), incubated with primary antibodies anti-PNPLA3 (1:500, C-8 Santa Cruz, SC-390252), anti-PNPLA3 (1:1000, Millipore, MABS2174) and anti-HSP90 (1:1000, Cell Signaling, #4877), and subsequently incubated with secondary antibodies IRDye 680 or IRDye 800 (1:2000; LI-COR Biosciences). Infrared signal was detected using the Odyssey imaging system (Licor). […]
a. Huh7, PNPLA3 I148M b. Huh7, PNPLA3 I148M-tagRFP […]
control NUV-244 control NUV-244
Supplemental Fig. 9: Western Blot NUV-244 a. […] PNPLA3 bands at 53kDa (unmodified in a.) or 80 kDa (PNPLA3 I148M-tagRFP) were quantified (signal above local background, normalized to loading control using LICOR Odyssey CLx / Image Studio) on two independent Western Blots and percent of intensity compared to DMSO controls calculated (Mean +/ - Stdev). […]

- time to half maximum effect of reduction of PNPLA3 I148M-tagRFP on lipid droplets (PNPLA3 I148M-tagRFP): approximately 2 h
- PNPLA3 band, percent of intensity compared to DMSO controls (PNPLA3 I148M): 67+/-12%
Compound: Cc1cccc(Cc2nc(C)c(C(=O)Nc3cc(O)ccc3Cl)s2)c1 [NUV-244]
- effect on proliferative capacity, Hep3B (Hep3B cells): no effects
